This passage reports Ki results from BindingDB's records for doi:10.1016/j.ejmech.2017.05.061 (The University of Queensland, 2017).

Assay [1] addresses T1, Metallo-beta-lactamase AIM-1 (Pseudomonas aeruginosa, UniProt B5DCA0).
T1 sequence (B5DCA0 whole entry): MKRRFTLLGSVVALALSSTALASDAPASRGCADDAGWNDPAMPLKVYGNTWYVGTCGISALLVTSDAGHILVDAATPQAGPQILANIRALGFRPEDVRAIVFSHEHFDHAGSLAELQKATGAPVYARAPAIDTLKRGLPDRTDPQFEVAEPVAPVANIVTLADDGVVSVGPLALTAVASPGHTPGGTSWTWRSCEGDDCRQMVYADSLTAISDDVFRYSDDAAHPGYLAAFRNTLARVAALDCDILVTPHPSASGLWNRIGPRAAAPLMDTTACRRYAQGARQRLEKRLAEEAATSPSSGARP
Put plainly: Competitive inhibition of Pseudomonas aeruginosa recombinant AIM1 expressed in Escherichia coli BL21(DE3) using cefuroxime as substrate by UV/Vis multi-plate spectrophotometric method.

For assay [2], the target named is Metallo-beta-lactamase type 2 (Aeromonas hydrophila, UniProt P26918). Put plainly: Competitive inhibition of Aeromonas hydrophila recombinant CphA expressed in Escherichia coli BL21(DE3) using meropenem as substrate by UV/Vis multi-plate spectrophotometric method.
Sequence of Metallo-beta-lactamase type 2 (P26918 whole entry): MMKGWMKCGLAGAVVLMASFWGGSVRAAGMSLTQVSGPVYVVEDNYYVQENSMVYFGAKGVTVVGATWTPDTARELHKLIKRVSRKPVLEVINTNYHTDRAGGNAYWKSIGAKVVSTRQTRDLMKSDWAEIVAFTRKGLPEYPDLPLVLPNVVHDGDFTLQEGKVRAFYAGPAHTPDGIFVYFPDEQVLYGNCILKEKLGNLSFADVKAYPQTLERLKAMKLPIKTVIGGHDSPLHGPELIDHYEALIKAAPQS

Structures are written as SMILES.

As a reminder, the Ki is the dissociation constant of the complex between target and ligand, obtained from inhibition or displacement.

`N#Cc1c(-c2ccccc2)c(-c2ccccc2)n(Cc2ccccc2)c1N`: the values for the Ki in assay [1] and in assay [2] were 2.2 µM and 52 µM, respectively. The like results for `N#Cc1c(-c2ccccc2)c(-c2ccccc2)n(Cc2ccccc2)c1NC(=O)c1ccccc1` were, in that order, 1.6 µM and 11 µM.

Take `N#Cc1c(-c2ccccc2)c(-c2ccccc2)n(Cc2ccccc2)c1NC(=O)c1ccc([N+](=O)[O-])cc1`: in assay [1], the Ki was 10.9 µM.

As for `N#Cc1c(-c2ccccc2)c(-c2ccccc2)n(Cc2ccccc2)c1NC(=O)c1ccc(C(=O)c2ccccc2)cc1`, the Ki in assay [2] worked out at 872 µM.
